Test results as given in patent US20240208992A1, “MACROCYCLES AS CFTR MODULATORS” (Idorsia Pharmaceuticals Ltd, priority 2021, published 2024).

Target: human F508del-CFTR (Homo sapiens, UniProt P13569, DEL508-508)
Assay: F508del-CFTR cell surface expression (corrector activity), DiscoveRx ß-galactosidase complementation chemiluminescence assay in recombinant U2OS cell line;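 note: U2OS cells co-expressing ProLink-tagged F508del-CFTR and a membrane-anchored enzyme acceptor, where more surface CFTR restores β-galactosidase activity measured by chemiluminescence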
Conditions: U2OS cell line, 16h compound incubation; for EC50: EC50, F508del-CFTR cell surface expression, geomean values; for Emax: U2OS, in relation to the Emax of the corrector lumacaftor (=100%), arithmetic mean values

human F508del-CFTR, sequence (P13569 with tags, fused parts or gaps DEL508-508): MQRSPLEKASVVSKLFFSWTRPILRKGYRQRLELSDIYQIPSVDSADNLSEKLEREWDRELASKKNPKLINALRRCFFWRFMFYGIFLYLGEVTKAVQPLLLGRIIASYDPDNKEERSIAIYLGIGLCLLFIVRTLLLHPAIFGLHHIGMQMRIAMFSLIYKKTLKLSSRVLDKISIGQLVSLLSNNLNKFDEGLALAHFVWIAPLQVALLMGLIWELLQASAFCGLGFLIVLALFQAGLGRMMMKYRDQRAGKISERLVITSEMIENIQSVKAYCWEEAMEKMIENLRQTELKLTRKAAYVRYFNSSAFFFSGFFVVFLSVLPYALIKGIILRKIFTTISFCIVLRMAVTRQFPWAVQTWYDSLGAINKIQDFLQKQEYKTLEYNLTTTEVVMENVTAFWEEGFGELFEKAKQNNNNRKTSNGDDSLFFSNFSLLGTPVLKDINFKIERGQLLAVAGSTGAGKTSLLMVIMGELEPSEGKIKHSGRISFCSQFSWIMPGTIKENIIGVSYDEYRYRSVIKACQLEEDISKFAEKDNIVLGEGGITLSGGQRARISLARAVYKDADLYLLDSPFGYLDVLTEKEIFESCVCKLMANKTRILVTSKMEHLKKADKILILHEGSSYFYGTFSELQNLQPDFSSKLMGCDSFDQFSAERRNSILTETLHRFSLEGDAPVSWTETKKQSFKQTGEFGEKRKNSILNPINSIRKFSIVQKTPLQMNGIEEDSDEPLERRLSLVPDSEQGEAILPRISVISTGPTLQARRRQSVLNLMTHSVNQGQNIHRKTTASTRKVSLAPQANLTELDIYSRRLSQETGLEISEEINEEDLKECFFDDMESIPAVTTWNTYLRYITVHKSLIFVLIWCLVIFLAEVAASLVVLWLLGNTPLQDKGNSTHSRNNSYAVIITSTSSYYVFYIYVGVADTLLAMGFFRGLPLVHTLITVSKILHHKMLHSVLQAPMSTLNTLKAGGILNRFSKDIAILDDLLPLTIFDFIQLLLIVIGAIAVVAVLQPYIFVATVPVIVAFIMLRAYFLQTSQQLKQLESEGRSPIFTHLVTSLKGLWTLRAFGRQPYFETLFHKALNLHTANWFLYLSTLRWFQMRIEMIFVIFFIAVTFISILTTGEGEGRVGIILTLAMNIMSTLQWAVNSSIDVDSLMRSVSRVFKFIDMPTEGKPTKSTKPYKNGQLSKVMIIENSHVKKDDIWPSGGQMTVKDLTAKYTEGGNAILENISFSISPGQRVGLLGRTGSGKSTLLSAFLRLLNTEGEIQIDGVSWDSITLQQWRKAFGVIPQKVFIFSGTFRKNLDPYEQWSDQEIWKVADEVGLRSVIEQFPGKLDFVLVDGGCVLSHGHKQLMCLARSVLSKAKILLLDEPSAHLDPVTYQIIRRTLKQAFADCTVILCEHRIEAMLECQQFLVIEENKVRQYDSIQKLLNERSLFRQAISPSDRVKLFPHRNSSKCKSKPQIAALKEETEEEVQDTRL

| SMILES | EC50 [nM] | Emax [%] |
| --- | --- | --- |
| CC(C)C[C@H]1C(=O)N2CCCC[C@@H]2C(=O)N[C@H](Cc2ccccc2)COc2cnc3ccccc3c2C(=O)N[C@H](C(=O)NCCc2cccc(F)c2F)CC(=O)N1C [Example 97, (9S,13S,19aR,22R)-22-benzyl-N-(2,3-difluorophenethyl)-13-isobutyl-12-methyl-7,11,14,20-tetraoxo-7,8,9,10,11,12,13,14,17,18,19,19a,20,21,22,23-hexadecahydro-16H-pyrido[2′,1′:6,7][1]oxa[4,7,10,14]tetraazacycloheptadecino[17,16-c]quinoline-9-carboxamide] | 146 | 285 |
| Cc1cc(CCNC(=O)[C@@H]2CC(=O)N(C)[C@@H](CC(C)C)C(=O)N3CCCC[C@@H]3C(=O)N[C@H](Cc3ccccc3)COc3cnc4ccccc4c3C(=O)N2)no1 [Example 98, (9S,13S,19aR,22R)-22-benzyl-13-isobutyl-12-methyl-N-(2-(5-methylisoxazol-3-yl)ethyl)-7,11,14,20-] | 311 | 326 |
| CC(C)C[C@H]1C(=O)N2CCCC[C@@H]2C(=O)N[C@H](Cc2ccccc2)COc2cnc3ccccc3c2C(=O)N[C@H](C(=O)NCCc2c(F)cc(Br)cc2F)CC(=O)N1C [Example 99, (9S,13S,19aR,22R)-22-benzyl-N-(4-bromo-2,6-difluorophenethyl)-13-isobutyl-12-methyl-7,11,14,20-tetraoxo-7,8,9,10,11,12,13,14,17,18,19,19a,20,21,22,23-hexadecahydro-16H-pyrido[2′,11:6,7][1]oxa[4,7,10,14]tetraazacycloheptadecino[17,16-c]quinoline-9-carboxamide] | 205 | 254 |
| COc1ccc(CCNC(=O)[C@@H]2CC(=O)N(C)[C@@H](CC(C)C)C(=O)N3CCCC[C@@H]3C(=O)N[C@H](Cc3ccccc3)COc3cnc4ccccc4c3C(=O)N2)cc1F [Example 100, (9S,13S,19aR,22R)-22-benzyl-N-(3-fluoro-4-methoxyphenethyl)-13-isobutyl-12-methyl-7,11,14,20-tetraoxo-7,8,9,10,11,12,13,14,17,18,19,19a,20,21,22,23-hexadecahydro-16H-pyrido[2′,11:6,7][1]oxa[4,7,10,14]tetraazacycloheptadecino[17,16-c]quinoline-9-carboxamide] | 184 | 273 |
| CC(C)C[C@H]1C(=O)N(C)CC(=O)N[C@H](Cc2ccccc2)COc2cc3c(cc2C(=O)N[C@H](C(=O)NCCc2ccc4c(c2)OCCCO4)CC(=O)N1C)OCO3 [Example 101, (7R,13S,17S)-7-benzyl-N-(2-(3,4-dihydro-2H-benzo[b][1,4]dioxepin-7-yl)ethyl)-13-isobutyl-11,14-dimethyl-9,12,15,19-tetraoxo-6,7,8,9,10,11,12,13,14,15,16,17,18,19-tetradecahydro-[1,3]dioxolo[4′,5′:4,5]benzo[1,2-p][1]oxa[4,7,10,14]tetraazacycloheptadecine-17-carboxamide] | 201 | 163 |
| Cc1ccc(F)c(CCNC(=O)[C@@H]2CC(=O)N(C)[C@@H](CC(C)C)C(=O)N3CCCC[C@@H]3C(=O)N[C@H](Cc3ccccc3)COc3cnc4ccccc4c3C(=O)N2)c1F [Example 102, (9S,13S,19aR,22R)-22-benzyl-N-(2,6-difluoro-3-methylphenethyl)-13-isobutyl-12-methyl-7,11,14,20-tetraoxo-7,8,9,10,11,12,13,14,17,18,19,19a,20,21,22,23-hexadecahydro-16H-pyrido[2′,11:6,7][1]oxa[4,7,10,14]tetraazacycloheptadecino[17,16-c]quinoline-9-carboxamide] | 225 | 332 |
| CC(C)C[C@H]1C(=O)N2CCCC[C@@H]2C(=O)N[C@H](Cc2ccccc2)COc2cnc3ccccc3c2C(=O)N[C@H](C(=O)NCCc2ccns2)CC(=O)N1C [Example 103, (9S,13S,19aR,22R)-22-benzyl-13-isobutyl-N-(2-(isothiazol-5-yl)ethyl)-12-methyl-7,11,14,20-tetraoxo-7,8,9,10,11,12,13,14,17,18,19,19a,20,21,22,23-hexadecahydro-16H-pyrido[2′,1′:6,7][1]oxa[4,7,10,14]tetraazacycloheptadecino[17,16-c]quinoline-9-carboxamide] | 499 | 256 |
| Cc1cccc(F)c1CCNC(=O)[C@@H]1CC(=O)N(C)[C@@H](CC(C)C)C(=O)N2CCCC[C@@H]2C(=O)N[C@H](Cc2ccccc2)COc2cnc3ccccc3c2C(=O)N1 [Example 104, (9S,13S,19aR,22R)-22-benzyl-N-(2-fluoro-6-methylphenethyl)-13-isobutyl-12-methyl-7,11,14,20-tetraoxo-7,8,9,10,11,12,13,14,17,18,19,19a,20,21,22,23-hexadecahydro-16H-pyrido[2′,11:6,7][1]oxa[4,7,10,14]tetraazacycloheptadecino[17,16-c]quinoline-9-carboxamide] | 211 | 204 |
| CC(C)C[C@H]1C(=O)N2CCCC[C@@H]2C(=O)N[C@H](Cc2ccccc2)COc2cnc3ccccc3c2C(=O)N[C@H](C(=O)NCCc2cc(C3CC3)on2)CC(=O)N1C [Example 105, (9S,13S,19aR,22R)-22-benzyl-N-(2-(5-cyclopropylisoxazol-3-yl)ethyl)-13-isobutyl-12-methyl-7,11,14,20-tetraoxo-7,8,9,10,11,12,13,14,17,18,19,19a,20,21,22,23-hexadecahydro-16H-pyrido[2′,1′:6,7][1]oxa[4,7,10,14]tetraazacycloheptadecino[17,16-c]quinoline-9-carboxamide] | 173 | 351 |
| CC(C)C[C@H]1C(=O)N2CCOC[C@@H]2C(=O)N[C@H](Cc2ccccc2)COc2cnc3ccccc3c2C(=O)N[C@H](C(=O)NCCc2cc(C3CC3)on2)CC(=O)N1C [Example 106, (9S,13S,19aR,22R)-22-benzyl-N-(2-(5-cyclopropylisoxazol-3-yl)ethyl)-13-isobutyl-12-methyl-7,11,14,20-tetraoxo-7,8,9,10,11,12,13,14,16,17,19,19a,20,21,22,23-hexadecahydro-[1,4]oxazino[3′,4′:6,7][1]oxa[4,7,10,14]tetraazacycloheptadecino[17,16-c]quinoline-9-carboxamide] | 864 | 308 |
| CC(C)C[C@H]1C(=O)N2CCOC[C@@H]2C(=O)N[C@H](Cc2ccccc2)COc2cnc3ccccc3c2C(=O)N[C@H](C(=O)NCCc2cc(C(C)(C)C)on2)CC(=O)N1C [Example 107, (9S,13S,19aR,22R)-22-benzyl-N-(2-(5-(tert-butyl)isoxazol-3-yl)ethyl)-13-isobutyl-12-methyl-7,11,14,20-tetraoxo-7,8,9,10,11,12,13,14,16,17,19,19a,20,21,22,23-hexadecahydro-[1,4]oxazino[3′,4′:6,7][1]oxa[4,7,10,14]tetraazacycloheptadecino[17,16-c]quinoline-9-carboxamide] | 794 | 257 |
| CC(C)C[C@H]1C(=O)N(C)C2(CC2)C(=O)N[C@H](Cc2ccccc2)COc2cnc3ccccc3c2C(=O)N[C@H](C(=O)NCCc2ccccc2)CC(=O)N1C [Example 108, (3′S,7′S,13′R)-13′-benzyl-7′-isobutyl-6′,9′-dimethyl-1′,5′,8′,11′-tetraoxo-N-phenethyl-2′,3′,4′,5′,6′,7′,8′,9′,11′,12′,13′,14′-dodecahydro-1′H-spiro[cyclopropane-1,10′-[1]oxa[4,7,10,14]tetraazacycloheptadecino[17,16-c]quinoline]-3′-carboxamide] | 581 | 222 |
